Several values for one entry are separate records, joined by “and”; a condition that tells them apart may be missing. Equal values may be shown once. Read-outs that look alike come from different tables or passages of the source.
Experiments:
β-glucosidase = β-glucosidase inhibition assay (in situ screen, IC50, Ki); assay type: biochemical, almonds; conditions: for IC50: pure compound; for β-glucosidase Inhibition (%): reaction product at 20 μM, in situ screening; for Ki: value in brackets
Procedure: (§1) A mixture of iminocyclitol 4, a carboxylic acid (1 equiv, Scheme 2), diisopropyl ethylamine (DIEA, 2.2 equiv), and (1H-benzotriazole-1-yl)-1,1,3,3-tetramethyl-uronium hexafluorophosphate (HBTU, 1.1 equiv) in DMSO was shaken in 96-well microtiter plates for 5 h. Crude reaction products were randomly selected (30%) and analyzed by ESI-MS to ensure the presence of the desired products. The reaction mixture was diluted by appropriate buffer solutions and transferred to another 96-well microtiter plate for screening directly without any purification. […] Assuming the amide formation is complete, the percentage of inhibition relative to the control was calculated on the basis of absorbance at 405 nm for p-nitrophenol released from their corresponding substrates.
(§2) Enzyme assay. General procedure for the assay with various glycosidases. The initial velocities of the hydrolysis were measured spectrophotometrically at various concentrations of p-nitrophenyl-glycopyranoside (4 mM, 2 mM, 1 mM, 0.5 mM, 0.25 mM, 0.125 mM, 0.0625 mM) at 405 nm using Bio Assay Reader (Perkin Elmer HTS 7000 Plus) at 30° C. The obtained data were fitted into the Michaelis-Menten equation by using the Kaleida Graph program to determine the apparent Km values. […] The assays performed in wells of the microtiter plate contained either sodium phosphate buffer (50 mM, pH 7, for α- and β-glucosidase, α- and β-galactosidase, α- and β-mannosidase, α-fucosidase), or Mcllvaine's buffer (25 mM, pH 6, N-acetyl-β-hexosaminidase, jack bean).
(§3) The secondary plot was generated by plotting the apparent Km values as a function of inhibitor concentrations. Ki was calculated from the negative value of the x-intercept of this plot.

α-glucosidase = molecular target: T1, α-glucosidase (Saccharomyces cerevisiae, UniProt P53341); assay: α-glucosidase inhibition assay (in situ screen, IC50, Ki); assay type: biochemical, baker's yeast; conditions: for IC50: pure compound; for α-glucosidase Inhibition (%): reaction product at 20 μM, in situ screening
T1 construct: purchased Sigma Co. (St. Louis, Mo.); host or cells: baker's yeast
Procedure: as §1
General procedure for coupling reactions and in situ screening. To a DMSO solution (10 μL) in each well of a 96-well microtiter plate was added each carboxylic acid (10 μL from a 10 mm stock solution in DMSO, 0.1 μmol), HBTU (10 μL from a 11 mm stock solution in DMSO, 1.1 equiv, 0.11 μmol), and DIEA (10 μL from a 22 mM stock solution in DMSO, 2.2 equiv, 0.22 μmol).
as §2, §3

[1] = system: dengue virus serotype 2 (DEN-2); assay: Anti-DEN-2 cell-based assay (plaque forming assay, BHK-21 cells)
[2] = system: Japanese encephalitis virus (JEV); assay: Anti-JEV cell-based assay (plaque forming assay, BHK-21 cells)
[3] = molecular target: N-acetyl-β-hexosaminidase; assay: N-acetyl-β-hexosaminidase inhibition assay (in situ screen, IC50, Ki); assay type: biochemical, jack bean; conditions: for IC50: pure compound, read-out: N-acetyl-β-hexosaminidse IC50; for N-acetyl-β-hexosaminidse Inhibition (%): reaction product at 30 μM, in situ screening
Procedure: as §1, §2, §3

[4] = value in brackets, read-out: α-glucosidase (Ki)

T1 sequence (P53341 whole entry): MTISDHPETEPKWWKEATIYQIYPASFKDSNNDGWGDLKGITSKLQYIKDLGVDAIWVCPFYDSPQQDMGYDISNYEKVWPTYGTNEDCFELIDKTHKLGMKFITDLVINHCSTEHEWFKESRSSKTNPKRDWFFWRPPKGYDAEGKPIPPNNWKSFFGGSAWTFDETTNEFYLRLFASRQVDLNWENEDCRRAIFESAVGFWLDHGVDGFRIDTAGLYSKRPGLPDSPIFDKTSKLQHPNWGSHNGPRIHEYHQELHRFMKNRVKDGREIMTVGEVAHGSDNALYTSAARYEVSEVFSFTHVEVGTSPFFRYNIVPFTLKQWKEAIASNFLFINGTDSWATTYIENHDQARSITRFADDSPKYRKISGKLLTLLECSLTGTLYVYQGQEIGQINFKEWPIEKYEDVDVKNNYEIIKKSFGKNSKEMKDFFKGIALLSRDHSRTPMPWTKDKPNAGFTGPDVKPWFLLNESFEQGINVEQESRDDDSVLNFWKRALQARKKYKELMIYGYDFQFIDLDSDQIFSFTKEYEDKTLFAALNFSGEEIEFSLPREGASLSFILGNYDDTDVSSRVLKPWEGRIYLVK

| SMILES | IC50 (β-glucosidase) [µM] | β-glucosidase Inhibition (%) (β-glucosidase) | IC50 (α-glucosidase) [µM] | α-glucosidase Inhibition (%) (α-glucosidase) | IC50 [3] [µM] | N-acetyl-β-hexosaminidse Inhibition (%) [3] [%] | other results |
| --- | --- | --- | --- | --- | --- | --- | --- |
| CCCCC(CC)C(=O)NC[C@H]1N[C@H](CO)[C@@H](O)[C@@H]1O (some centres unmarked) [Compound 7] | 4.8 | 52 | 4 | 61 | 19 | 20 | inhibition of DEN-2 infection ([1]; at 50 and 100 μM): no inhibition; inhibition of JEV infection ([2]; at 50 and 100 μM): no inhibition |
| O=C(CCc1c[nH]c2ccccc12)NC[C@H]1N[C@H](CO)[C@@H](O)[C@@H]1O [Compound 21] | 75 | 20 | 11 | 83 | 3.2 | 27 |  |
| O=C(/C=C/c1cccc(Br)c1)NC[C@H]1N[C@H](CO)[C@@H](O)[C@@H]1O [Compound 26] |  | 52 |  | 31 |  | 17 |  |
| CC(=O)OC[C@H]1N[C@H](CNC(=O)C2Cc3ccccc32)[C@@H](OC(C)=O)[C@@H]1OC(C)=O (some centres unmarked) [Compound 30] |  |  |  |  |  |  | inhibition of DEN-2 infection ([1]; at 50 μM): no inhibition; inhibition of JEV infection ([2]; at 50 μM): no inhibition |
| O=C(NC[C@H]1N[C@H](CO)[C@@H](O)[C@@H]1O)C1Cc2ccccc21 (some centres unmarked) [Compound 24] | 92 | 45 | 0.15 | 93 | 11 | 9 | selectivity for α- over β-glucosidase (α-glucosidase): 600 fold; Ki (α-glucosidase; text b9, read-out: Ki, α-glucosidase): 0.053 µM; Ki (α-glucosidase; text b34, read-out: Ki against yeast α-glucosidase): 0.053 µM; Ki (α-glucosidase; [4]): 0.053 µM; increase in activity compared to parent core 4 (α-glucosidase; α-glucosidase): 100 fold; inhibition of DEN-2 infection ([1]; at 50 and 100 μM): no inhibition; inhibition of JEV infection ([2]; at 50 and 100 μM): no inhibition |
| O=C(NC[C@H]1N[C@H](CO)[C@@H](O)[C@@H]1O)c1ccc2c(c1)C(=O)c1ccccc1-2 [Compound 25] |  | 63 |  | 56 |  | 17 |  |
| O=C(NC[C@H]1N[C@H](CO)[C@@H](O)[C@@H]1O)c1ccc2[nH]ccc2c1 [Compound 19] |  | 15 |  | 82 |  | 14 |  |
| O=C(NC[C@H]1N[C@H](CO)[C@@H](O)[C@@H]1O)c1ccccc1 [Compound 10] |  | 12 |  | 16 |  | 13 |  |
| O=C(Cc1cccc2ccccc12)NC[C@H]1N[C@H](CO)[C@@H](O)[C@@H]1O [Compound 17] | 92 | 45 | 0.28 | 94 |  | 45 | Ki (α-glucosidase; [4]): 0.077 µM; inhibition of DEN-2 infection ([1]; at 50 and 100 μM): no inhibition; inhibition of JEV infection ([2]; at 50 and 100 μM): no inhibition |
| O=C(Cc1ccc2ccccc2c1)NC[C@H]1N[C@H](CO)[C@@H](O)[C@@H]1O [Compound 16] | 49 | 44 | 19 | 67 | 15 | 10 |  |
| O=C(/C=C/c1c[nH]c2ccccc12)NC[C@H]1N[C@H](CO)[C@@H](O)[C@@H]1O [Compound 22] | 260 | 34 | 0.81 | 42 | 63 | 16 | inhibition of DEN-2 infection ([1]; at 50 and 100 μM): no inhibition; inhibition of JEV infection ([2]; at 50 and 100 μM): no inhibition |
| COC(=O)c1ccc2[nH]c(C(=O)NC[C@H]3N[C@H](CO)[C@@H](O)[C@@H]3O)cc2c1 [Compound 18] | 10 | 53 | 120 | 36 | 42 | 23 | Ki (β-glucosidase): 6.2 µM |
| COc1ccc(/C=C/C(=O)NC[C@H]2N[C@H](CO)[C@@H](O)[C@@H]2O)cc1OC(C)=O [Compound 28] | 2.4 |  | 250 | 27 |  | 52 | Ki (β-glucosidase): 1.24 µM and 1.2 µM |
| CCCCCCCCCN1C(CO)C(O)C(O)C1CNC(=O)C1Cc2ccccc21 (centres unmarked) [Compound 36] |  |  |  |  |  |  | IC50 ([1]; read-out: DEN IC50, M.O.I. = 0.1, virus production, BHK-21 cells): 11.8 ± 0.2 µM; IC90 ([1]; read-out: DEN IC90, M.O.I. = 0.1, virus production, BHK-21 cells): 18 ± 0.2 µM; IC50 ([2]; read-out: JEV IC50, M.O.I. = 0.1, virus production, BHK-21 cells): 11.3 ± 1.9 µM; IC90 ([2]; read-out: JEV IC90, M.O.I. = 0.1, virus production, BHK-21 cells): 17.5 ± 0.8 µM |
| NC(Cn1ccc(=O)cc1)C(=O)NCC1NC(CO)C(O)C1O (centres unmarked) [Compound 9] |  | 37 |  | 27 |  | 53 |  |
| O=C(CO)NC[C@H]1N[C@H](CO)[C@@H](O)[C@@H]1O [Compound 6] |  | 23 |  | 10 |  | 67 |  |
| CN(C)c1ccc(C(=O)NC[C@H]2N[C@H](CO)[C@@H](O)[C@@H]2O)cc1 [Compound 11] |  | 55 |  | 41 |  | 6 |  |
| O=C(Cc1c[nH]c2ccccc12)NC[C@H]1N[C@H](CO)[C@@H](O)[C@@H]1O [Compound 20] | 130 | 23 | 1.2 | 85 |  | 29 | Ki (α-glucosidase; [4]): 0.43 µM; inhibition of DEN-2 infection ([1]; at 50 and 100 μM): no inhibition; inhibition of JEV infection ([2]; at 50 and 100 μM): no inhibition |
| Cc1ccc(/C=C/C(=O)NC[C@H]2N[C@H](CO)[C@@H](O)[C@@H]2O)cc1 [Compound 27] |  | 55 |  | 26 |  | 6 |  |
| O=C(NC[C@H]1N[C@H](CO)[C@@H](O)[C@@H]1O)c1cn(Cc2ccccc2)c2ccccc12 [Compound 23] | 92 | 28 | 17 | 63 | 4.7 | 14 |  |
| O=C(/C=C/c1cccc(C(F)(F)F)c1)NC[C@H]1N[C@H](CO)[C@@H](O)[C@@H]1O [Compound 12] |  | 49 |  | 19 |  | 8 |  |
| O=C(/C=C/c1cccc(Cl)c1)NC[C@H]1N[C@H](CO)[C@@H](O)[C@@H]1O [Compound 13] |  | 59 |  | 19 |  | 3 |  |
| CN(C)c1ccc(/C=C/C(=O)NC[C@H]2N[C@H](CO)[C@@H](O)[C@@H]2O)cc1 [Compound 29] | 3.2 | 55 | 280 | 22 | 7.02 | 17 | Ki (β-glucosidase): 1.4 µM |
| O=C(NC[C@H]1N[C@H](CO)[C@@H](O)[C@@H]1O)c1ccc2ccccc2c1 [Compound 15] | 58 | 28 | 100 | 45 | 44 | 31 | Ki (β-glucosidase): 30 µM |
| CSc1ccccc1C(=O)NC[C@H]1N[C@H](CO)[C@@H](O)[C@@H]1O [Compound 14] |  | 7 |  | 51 |  | 54 |  |

Source: patent publication US8273788B2, “Five-membered iminocyclitol derivatives as selective and potent glycosidase inhibitors: new structures for antivirals and osteoarthritis therapeutics” (Academia Sinica, Taiwan, priority 2005, dated 2012)
